Test results published in patent US20200190470A1, “TEMOZOLOMIDE RESISTANT CELLS AND AN INTEGRATED METHOD FOR CHARACTERIZING THE SAME” (Council of Scientific & Industrial Research, priority 2018, published 2020).

Experiments:
[1] = system: differentiated cells (NDx) of NSP; test: TMZ dose response of differentiated NSP cells (NDx); settings: Homo sapiens
Procedure: For dose-response experiments, four replicates at ˜20,000 cells per well were plated in 96-well Nunc™ tissue culture plates in full growth medium for 24 h, treated with different doses of TMZ in serial dilutions (0.05Me5M) followed by cell viability tests using the MTT assay. Appropriate cell controls (without TMZ treatment) were used to calculate IC50.

[2] = system: NSP cells (neurospheres derived from U87MG); test: TMZ dose response, MTT cell viability assay, neurospheres (NSP); parameters: AUC (area under dose response curve): unit not given beside the values
U87MG cells = test: TMZ dose response, MTT cell viability assay, U87MG; parameters: AUC (area under dose response curve): unit not given beside the values

## Cn1nnc2c(C(N)=O)ncn2c1=O [Temozolomide]
[1]
  IC50: 818 µM
[2]; Homo sapiens, U-87 MG
  IC50: 1040 µM
[2]; NSP relative to U87MG
  fold resistance ratio: 1.41
[2]; Neurospheres (NSP)
  AUC (area under dose response curve): 276836
  Emax: 49.29
  Log2 (Hill Slope): 0
U87MG cells; Homo sapiens, U-87 MG
  IC50: 746 µM
U87MG cells; U87MG
  AUC (area under dose response curve): 53039
  Emax: 25.53
  Log2 (Hill Slope): −1.959
